# Assay results reported in US20240123079A1 (Seagen Inc., priority 2021, published 2024).
# Values joined by “and” are separate entries in the source; they are usually repeats but may differ in a detail not shown here. Equal values may be shown once.
# What was measured:
# Ls174T = test: Cancer cell direct cytotoxicity assay (CellTiter-Glo), Ls174T; type: cell-based; settings: Homo sapiens, 96 h, free compound, read-out: Compound X50
# Procedure: (§1) Bystander activity of ADCs was evaluated using Renca cancer cells and THP1-Dual™ cells (InvivoGen) which contain an IRF-Lucia luciferase reporter. Cells were cultured in RPMI-1640 (Gibco) with 10% heat-inactivated fetal bovine serum, Pen-Strep (100 U/ml-100 μg/ml, Gibco), HEPES (10 mM, Gibco), sodium pyruvate (1 mM, Gibco), MEM non-essential amino acids (1×, Gibco), GlutaMAX (1×, Gibco), and beta-mercaptoethanol (55 μM, Gibco). Renca cells were plated in a 96-well flat bottom tissue culture-treated clear polystyrene plate (Corning Costar #3596) at 50,000 cells per well in 100 μL. On the day following the initial plating, 50,000 THP1-Dual™ cells were added to each well with the indicated concentration of ADC in a total volume of 200 μL. Supernatant was harvested at 48 hours post addition of the THP1-Dual™ cells. To measure Lucia reporter signal, 10 μL of supernatant was combined with 40 μL of QUANTI-Luc™ Luminescence assay reagent (Invivogen PN: rep-qlc1) in a 96-well clear flat bottom tissue culture-treated black polystyrene plate (Corning Costar PN: 3603) and read on a Perkin Elmer Envision plate reader. In some experiments, HEK 293T cells engineered to express a murine protein typically expressed by immune cells (target antigen C— an immune cell antigen) were plated as above instead of Renca tumor cells. Cancer Cell Direct Cytotoxicity Assay
# (§2) Cancer cells were counted and plated in 40 μL complete growth media in 384-well, white-walled tissue culture treated plates (Corning). Cell plates were incubated at 37° C. and with 5% CO2 overnight to allow the cells to equilibrate. Stock solutions containing ADCs or free drugs were serially diluted in RPMI-1640+20% fetal bovine serum (FBS). 10 μL of each concentration were then added to each cell plate in duplicate. Cells were then incubated at 37° C. and with 5% CO2 for 96 hours, upon which, the cell plates were removed from the incubator and allowed to cool to room temperature for 30 minutes prior to analysis. […] The luminescence of the samples was measured using an EnVision Multimode plate reader (Perkin Elmer, Waltham, MA). […]
# Karpas299 = test: Cancer cell direct cytotoxicity assay (CellTiter-Glo), Karpas299; type: cell-based; settings: Homo sapiens, KARPAS-299; Karpas299, 96 h, free compound; read-out: Compound X50
# Procedure: as §1, §2
# human cancer cell lines = test: Cancer cell direct cytotoxicity assay, panel statement; type: cell-based; settings: panel of human cancer cell lines
# Procedure: as §1
# Cancer cells were counted and plated in 40 μL complete growth media in 384-well, white-walled tissue culture treated plates (Corning). Cell plates were incubated at 37° C. and with 5% CO2 overnight to allow the cells to equilibrate. […] The luminescence of the samples was measured using an EnVision Multimode plate reader (Perkin Elmer, Waltham, MA). […]
# Compound 12a was conjugated to both targeted and non-binding antibodies using a variety of non-cleavable linkers (12, 17, 19-24) and the resulting ADCs were assessed for their ability to activate THP1-Dual™ reporter cells. […] We also evaluated the ability of these linkers to directly kill cancer cells when conjugated to targeted mAbs binding tumor antigen A or antigen B (CD30).
# L540cy = test: Cancer cell direct cytotoxicity assay (CellTiter-Glo), L540cy; type: cell-based; settings: Homo sapiens, 96 h, free compound, read-out: Compound X50
# Procedure: as §1, §2
# [1] = In vivo cytokine assay, plasma of CT26 tumor-bearing mice; design: species or system mouse; settings: 1.86 mg/kg
# Procedure: Cytokines were measured in mouse plasma harvested at 3, 6, 24, or 48 hours after treatment with compounds or ADCs using a Milliplex MAP mouse cytokine/chemokine magnetic bead panel assay kit (MCYTOMAG-70k custom 11-plex kit: MCP1, MIP1α, MIP1β, TNFα, IFNγ, IL-10, IL-12p70, IL-6, IL-1β, IP10, RANTES) and analyzed using a Luminex™ MAGPIX™ Instrument System. Values that were outside of the standard curve range (<3.2 or […]) were excluded from calculation of the mean values.
# SU-DHL-4 = test: Cancer cell direct cytotoxicity assay (CellTiter-Glo), SU-DHL-4; type: cell-based; settings: Homo sapiens; SU-DHL-4, 96 h, free compound; read-out: Compound X50
# Procedure: as §1, §2
# DELBVR = test: Cancer cell direct cytotoxicity assay (CellTiter-Glo), DELBVR; type: cell-based; settings: Homo sapiens, 96 h, free compound, read-out: Compound X50
# Procedure: as §1, §2
# [2] = test system: wild type (WT) murine bone marrow-derived macrophages; test: Bone marrow-derived macrophage assay, wild type; type: cell-based, mouse; settings: 24 h
# Procedure: Bone Marrow-Derived Macrophage Assay
# Potency of the compounds described herein was evaluated using mouse bone-marrow derived macrophages cultured from wild type (C57BL/6J, the Jackson Laboratory #000664) or STING-deficient (C57BL/6J-Sting1^gt/J, the Jackson Laboratory #017537) mice. Briefly, mouse bone marrow cells were cultured for 7-10 days in RPMI-1640 (Gibco) with 10% heat-inactivated fetal bovine serum, Pen-Strep (100 U/mL-100 μg/mL, Gibco), HEPES (10 mM, Gibco)), sodium pyruvate (1 mM, Gibco), GlutaMAX (1×, Gibco), beta-mercaptoethanol (55 μM, Gibco) and 20-40 ng/mL murine M-CSF (Peprotech, #315-02). Cells were plated in a 96-well flat bottom tissue culture-treated clear polystyrene plate (Corning Costar #3596) at ˜100,000 cells per well in 200 μL with the indicated concentration of the compound. The supernatant was harvested at 24 hours and cytokines were measured using a Milliplex MAP mouse cytokine/chemokine magnetic bead panel assay kit (MCYTOMAG-70k custom 11-plex kit: MCP1, MIP1α, MIP1β, TNFα, IFNγ, IL-10, IL-12p70, IL-1β, IL-6, IP10, RANTES) and analyzed using a Luminex™ MAGPIX™ Instrument System.
# CT26 cancer cells = test: CT26 tumor model, in vivo anti-tumor activity; design: species or system mouse; settings: CT26 tumor-bearing mice, q7dx3
# Procedure: CT26 cancer cells (ATCC) were cultured in RPMI 1640 modified with 1 mM Sodium Pyruvate, 10 mM HEPES, 2.8 mL 45% Glucose (1.25 g) and supplemented with 10% fetal bovine serum and 1% Pen/Strep/Glutamine. CT26 cancer cells were implanted ([…] in 200 uL serum-free RPMI 1640) subcutaneously into Balb/c mice.
smiles,measurement,setting,value
"CCn1nc(C)cc1C(=O)Nc1nc2cc(C(N)=O)cc(O)c2n1C/C=C/Cn1c(NC(=O)c2cc(C)nn2CC)nc2cc(C(N)=O)cc(OC)c21 [Compound 1, (E)-1-(4-(5-carbamoyl-2-(1-ethyl-3-methyl-1H-pyrazole-5-carboxamido)-7-hydroxy-1H-benzo[d]imidazol-1-yl)but-2-en-1-yl)-2-(1-ethyl-3-methyl-1H-pyrazole-5-carboxamido)-7-methoxy-1H-benzo[d]imidazole-5-carboxamide]",IC50,Ls174T,> 1000 nM
same,IC50,Karpas299,> 1000 nM
same,direct cytotoxic activity on cancer cell lines,human cancer cell lines,demonstrated direct cytotoxic activity on a subset of cancer cell lines
same,IC50,L540cy,31 nM
same,IL-6 in peripheral blood (plasma),[1]; 3 h,622.1 and 781.4 and 1128.3
same,IP-10 in peripheral blood (plasma),[1]; 3 h,1439.4 and 1501.7 and 1160.7
same,MCP-1 in peripheral blood (plasma),[1]; 3 h,73.7 and 78.6 and 110.3
same,MIP1b in peripheral blood (plasma),[1]; 3 h,297.7 and 336.8 and 224
same,MIP-1a in peripheral blood (plasma),[1]; 3 h,3.9 and 3.2
same,TNFa in peripheral blood (plasma),[1]; 3 h,3.2 and 4.9 and 4.3
same,IL-6 in peripheral blood (plasma),[1]; 6 h,2652.5 and 2393.5 and 2412.7
same,IP-10 in peripheral blood (plasma),[1]; 6 h,2610.8 and 2133.6 and 2473.4
same,MCP-1 in peripheral blood (plasma),[1]; 6 h,3185.3 and 2816.3 and 1634.8
same,MIP-1a in peripheral blood (plasma),[1]; 6 h,94.6 and 93.6 and 73.9
same,TNFa in peripheral blood (plasma),[1]; 6 h,16.9 and 16.6 and 10
same,IL-6 in peripheral blood (plasma),[1]; 24 h,44.5 and 31.8 and 36.5
same,IL-10 in peripheral blood (plasma),[1]; 24 h,3.2
same,IP-10 in peripheral blood (plasma),[1]; 24 h,1121.6 and 1025.3 and 696.2
same,MCP-1 in peripheral blood (plasma),[1]; 24 h,397.7 and 294.7 and 305.9
same,IL-10 in peripheral blood (plasma),[1]; 48 h,3.2
same,IP-10 in peripheral blood (plasma),[1]; 48 h,560.1 and 398.8 and 560
same,IC50,SU-DHL-4,> 1000 nM
same,IC50,DELBVR,16 nM
same,cytokine production,[2],induced cytokine production
same,tumor growth delay,CT26 cancer cells,minimal tumor growth delay
CCn1nc(C)cc1C(=O)Nc1nc2cc(C(N)=O)cc(OC)c2n1C/C=C/Cn1c(NC(=O)c2cc(C)nn2CC)nc2cc(C(N)=O)cc(OCCCNC)c21 [Compound 12a],IC50,Ls174T,> 1000 nM
same,IC50,Karpas299,> 1000 nM
same,direct cytotoxic activity on cancer cell lines,human cancer cell lines,demonstrated direct cytotoxic activity on a subset of cancer cell lines
same,IC50,L540cy,83 nM
same,IC50,SU-DHL-4,> 1000 nM
same,IC50,DELBVR,111 nM
same,cytokine production,[2],induced cytokine production
